Like-named read-outs stand apart in the source and are kept apart here.
How the values were obtained:
[1] = double blind, oral, PDR 58, 2004, cited from earlier work
[2] = difference to placebo
[3] = cited from earlier work
[4] = oral, cited from earlier work
[5] = Oral ropinirole trial, comparison of central side effects (Table 5); assay type: in vivo, human; conditions: difference to placebo, up to 24 mg (8 mg TID), 6 months
[6] = 20 cm^2 TTS, plasma
Text: The application site was the upper arm and changed from one arm to the other between two successive periods.

[7] = Double blind comparison of oral lisuride and placebo in 20 patients with Parkinson's disease; conditions: up to maximum tolerance dose of 5 mg daily, immediate-release tablet, eight of 20 patients
Text: The dosage of other active substances was kept unchanged during the trial.

[8] = oral, 4.5 mg or max. tol. dose, 7 weeks dose esc. +4 weeks
[9] = oral, 4.5 mg or max. tol. dose daily, 7 weeks dose esc. +4 weeks
[10] = up to 24 mg (8 mg TID) daily, 6 months
[11] = difference to placebo (footnote: less than placebo), transdermal, 2 (20 cm^2) QOD, 14 weeks
[12] = difference to placebo, transdermal, 2 (20 cm^2) QOD, 14 weeks
[13] = transdermal, 2 (20 cm^2) QOD, 14 weeks, 335 Parkinsonism patients

In the case of `CCCN[C@H]1CCc2nc(N)sc2C1` [Pramipexol], the “GI side effects: Nausea/vomiting (%)” value ([1]; dose range 0.375-4.5 mg, n = 388) is given as 12.4%, the “Hallucinations Δ” value ([2]; 8 month trial) is given as 13 and the “Confusion Δ” value [2, 8] is given as 3. The “Dizziness Δ” value [2, 8] was 0.2, the “Drownsiness Δ” value [2, 8] was 2 and the “Dyskinesias Δ” value [2, 8] was 10.2. The “Fatigue Δ” value [2, 8] was 24.9, the “Hypotension Δ” value [2, 8] was 6.5 and the “Nausea Δ” value [2, 8] was 2. The “Other psych.* Δ” value [2, 8] was 12.4, the “patients who reported hallucinations” value ([3]; 8 month trial) was 17% and the “Other psych.*” value ([3]; amnesia, fear, abnormal dreams, nervousness, delusions, paranoid reactions, sleeplessness, oral, 4.5 mg or max. tol. dose, 7 weeks dose esc. +4 weeks) was 28.3. The Confusion [3, 9] was 10, the Dizziness [3, 9] was 2.9 and the Drownsiness [3, 9] was 9. The Dyskinesias [3, 9] was 14.7, the Fatigue [3, 9] was 29.4 and the Hypotension [3, 9] was 8.8. The Nausea [3, 9] was 8.8.
For `C=CCN1C[C@H](C(=O)N(CCCN(C)C)C(=O)NCC)C[C@@H]2c3cccc4[nH]cc(c34)C[C@H]21` [Cabergoline], the “GI side effects: Nausea/vomiting (%)” value ([1]; dose range 0.25-1.0 mg, n = 221) is listed as 29.0%.
For `CC(C)C[C@H]1C(=O)N2CCC[C@H]2[C@]2(O)O[C@](NC(=O)[C@@H]3C=C4c5cccc6[nH]c(Br)c(c56)C[C@H]4N(C)C3)(C(C)C)C(=O)N12` [Bromocriptine], the “GI side effects: Nausea/vomiting (%)” value ([1]; dose range 5.0-30.0 mg, n = 231) is given as 43%.
For `CCCN(CCC)CCc1cccc2c1CC(=O)N2` [Ropinirol], the “GI side effects: Nausea/vomiting (%)” value ([1]; dose range 0.5-5.0 mg, n = 157) is given as 45.8%, the “Other psych.*” value ([4]; amnesia, fear, abnormal dreams, nervousness, delusions, paranoid reactions, sleeplessness, up to 24 mg (8 mg TID), 6 months) is given as 19 and the Confusion [4, 10] is given as 9. For the same compound, the Dizziness [4, 10] was 26, the Drownsiness [4, 10] was 20 and the Dyskinesias [4, 10] was 34. For the same compound, the Hallucinations [4, 10] was 10, the Hypotension [4, 10] was 2 and the Nausea [4, 10] was 30. The Syncope [4, 10] was 3, the Vomiting [4, 10] was 7 and the Fatigue ([4]; data from restless legs study) was 8^♦. For the same compound, the “Confusion Δ” value [5] was 7, the “Dizziness Δ” value [5] was 10 and the “Drownsiness Δ” value [5] was 12. For the same compound, the “Dyskinesias Δ” value [5] was 21, the “Hallucinations Δ” value [5] was 6 and the “Hypotension Δ” value [5] was 1. For the same compound, the “Nausea Δ” value [5] was 12, the “Other psych.* Δ” value [5] was 10 and the “Syncope Δ” value [5] was 1. For the same compound, the “Vomiting Δ” value [5] was 3.
With `CCN(CC)C(=O)N[C@H]1C=C2c3cccc4[nH]cc(c34)CC2N(C)C1` (some centres unmarked) [Lisuride, lisuride] the “Transition level” value ([6]; First application) was 32 pg/mL, the Peak level ([6]; Fourth application) was 140 pg/mL and the “Transition level” value ([6]; Fourth application) was 32 pg/mL. For the same compound, the Peak level ([6]; Second application) was 125 pg/mL, the “Transition level” value ([6]; Second application) was 23 pg/mL and the Peak level ([6]; Third application) was 130 pg/mL. The “Transition level” value ([6]; Third application) was 31 pg/mL, the “Gastrointestinal symptoms, in particular nausea (patients)” value [7] was 40% and the “Other psych.*” value (amnesia, fear, abnormal dreams, nervousness, delusions, paranoid reactions, sleeplessness, transdermal, 2 (20 cm^2) QOD, 14 weeks) was 8. The “Skin reactions resulting in discontinuation Δ” value (difference to placebo) was 11.3, the “Dizziness Δ” value [11] was 0^♡ and the “Other psych.* Δ” value [11] was 0^♡. The “Confusion Δ” value [12] was 1.2, the “Drownsiness Δ” value [12] was 1.8 and the “Dyskinesias Δ” value [12] was 4.1. The “Fatigue Δ” value [12] was 1, the “Hallucinations Δ” value [12] was 3.6 and the “Hypotension Δ” value [12] was 1.2. For the same compound, the “Nausea Δ” value [12] was 0.6, the “Syncope Δ” value [12] was 0 and the “Vomiting Δ” value [12] was 0.6. The “Skin reactions resulting in discontinuation” value (lisuride group, transdermal, 14 weeks) was 12.5%, the Confusion [13] was 1.2 and the Dizziness [13] was 0.6. The Drownsiness [13] was 3.6, the Dyskinesias [13] was 7.1 and the Fatigue [13] was 1. It also gave a Hallucinations [13] of 5.4, a Hypotension [13] of 2.4 and a Syncope [13] of 0. For the same compound, the Vomiting [13] was 1.2.

From patent US20100143475A1, “TRANSDERMAL THERAPEUTIC SYSTEM WITH TWO-PHASE RELEASE PROFILE” (priority 2006, published 2010)
